Test results reported in patent publication US10538554B2, “Peptides and uses therefor as antiviral agents” (priority 2015, dated 2020).
Bridge positions count the residues as written; N and C are the ends. Square brackets hold non-standard residues; d marks the D form. Peptide text beside a SMILES is read from it.

Assays:
H1N1 A/PR/8/1934 = settings: A/PR/8/1934, 48 h, 1 μM
H9N2 A/Iran/16/2000 = settings: 48 h, 500 μM
H3N8 A/Miami/2/63 = settings: A/Miami/2/63, 48 h, 500 μM
[1] = tested on: H1N1 A1/Malaysia/302/1954; settings: A1/Malaysia/302/1954, 48 h, 500 μM

Question: Which “% Inhibition” value (H1N1 A/PR/8/1934) does the source give for `CC[C@@H](C)[C@H]1NC(=O)[C@@H](Cc2ccccc2)NC(=O)[C@@H]([C@H](C)O)NC(=O)[C@@H](Cc2ccccc2)NC(=O)[C@@H](Cc2c[nH]c3ccccc23)NC(=O)[C@@H](Cc2c[nH]c3ccccc23)NC(=O)[C@H](NC(=O)[C@H](CCCCN)NC(=O)[C@H](CCCCN)NC(=O)[C@H](CCCNC(=N)N)NC(=O)[C@@H](N)CCCNC(=N)N)CSSC[C@H](C(=O)O)NC(=O)[C@@H](CC(=O)O)NC1=O` [PSP VI A3, H-RRKKcwwftfidc-OH] (H-RRKK[dC][dW][dW][dF][dT][dF][dI][dD][dC]-OH; disulfide 5-13) here?
Answer: Its value is 66%.

Question: How did the “% Inhibition” value (H1N1 A/PR/8/1934) turn out when `CC[C@@H](C)[C@H]1NC(=O)[C@@H](Cc2ccccc2)NC(=O)[C@@H]([C@H](C)O)NC(=O)[C@@H](Cc2ccccc2)NC(=O)[C@@H](Cc2c[nH]c3ccccc23)NC(=O)[C@@H](CCCCN)NC(=O)[C@H](NC(=O)[C@H](CCCCN)NC(=O)[C@H](CCCCN)NC(=O)[C@H](CCCNC(=N)N)NC(=O)[C@@H](N)CCCNC(=N)N)CSSC[C@H](C(=O)O)NC(=O)[C@@H](CC(N)=O)NC1=O` [PSP V A9, H-RRKKckwftfinc-OH] (H-RRKK[dC][dK][dW][dF][dT][dF][dI][dN][dC]-OH; disulfide 5-13) was run?
Answer: Its value is 77%.

Question: With `CC[C@@H](C)[C@H]1NC(=O)[C@@H](Cc2ccccc2)NC(=O)[C@@H]([C@H](C)O)NC(=O)[C@@H](Cc2ccccc2)NC(=O)[C@@H](Cc2c[nH]c3ccccc23)NC(=O)[C@@H](Cc2ccccc2)NC(=O)[C@H](NC(=O)[C@H](CCCCN)NC(=O)[C@H](CCCCN)NC(=O)[C@H](CCCNC(=N)N)NC(=O)[C@@H](N)CCCNC(=N)N)CSSC[C@H](C(=O)O)NC(=O)[C@@H](CC(N)=O)NC1=O` [PSP V A5, H-RRKKcfWftfinc-OH] (H-RRKK[dC][dF][dW][dF][dT][dF][dI][dN][dC]-OH; disulfide 5-13) as the molecule, how does the “% Inhibition” value (H1N1 A/PR/8/1934) read?
Answer: Its value is 57%.

Question: For `CC[C@@H](C)[C@H]1NC(=O)[C@@H](Cc2ccccc2)NC(=O)[C@@H]([C@H](C)O)NC(=O)[C@@H](Cc2ccccc2)NC(=O)[C@@H](Cc2c[nH]c3ccccc23)NC(=O)[C@@H](Cc2c[nH]c3ccccc23)NC(=O)[C@H](NC(=O)[C@H](CCCCN)NC(=O)[C@H](CCCCN)NC(=O)[C@H](CCCNC(=N)N)NC(=O)[C@@H](N)CCCNC(=N)N)CSSC[C@H](C(=O)O)NC(=O)CNC1=O` [PSP VI A6, H RRKKcwwftfiGc-OH] (H-RRKK[dC][dW][dW][dF][dT][dF][dI]G[dC]-OH; disulfide 5-13), which “% Inhibition” value (H1N1 A/PR/8/1934) is on record?
Answer: Its value is 69%.

Question: `CC[C@@H](C)[C@H]1NC(=O)[C@@H](Cc2ccccc2)NC(=O)[C@@H]([C@H](C)O)NC(=O)[C@@H](Cc2ccccc2)NC(=O)[C@@H](Cc2c[nH]c3ccccc23)NC(=O)[C@@H](Cc2c[nH]c3ccccc23)NC(=O)[C@H](NC(=O)[C@H](CCCCN)NC(=O)[C@H](CCCCN)NC(=O)[C@H](CCCNC(=N)N)NC(=O)[C@@H](N)CCCNC(=N)N)CSSC[C@H](C(=O)O)NC(=O)[C@@H](C(C)C)NC1=O` [PSP VI A18, H-RRKKcwwftfivc-OH] (H-RRKK[dC][dW][dW][dF][dT][dF][dI][dV][dC]-OH; disulfide 5-13) was tested. Which “% Inhibition” value (H1N1 A/PR/8/1934) did it give?
Answer: Its value is 53%.

Question: `CC[C@@H](C)[C@H]1NC(=O)[C@@H](Cc2ccccc2)NC(=O)[C@@H]([C@H](C)O)NC(=O)[C@@H](Cc2ccccc2)NC(=O)[C@@H](Cc2c[nH]c3ccccc23)NC(=O)[C@@H](Cc2c[nH]cn2)NC(=O)[C@H](NC(=O)[C@H](CCCCN)NC(=O)[C@H](CCCCN)NC(=O)[C@H](CCCNC(=N)N)NC(=O)[C@@H](N)CCCNC(=N)N)CSSC[C@H](C(=O)O)NC(=O)[C@@H](CC(N)=O)NC1=O` [PSP V A7, H-RRKKchwitfinc-OH] (H-RRKK[dC][dH][dW][dF][dT][dF][dI][dN][dC]-OH; disulfide 5-13) was tested. Which “% Inhibition” value (H1N1 A/PR/8/1934) did it give?
Answer: The value was 67%.

Question: Which “% Inhibition” value (H1N1 A/PR/8/1934) does the source give for `CC[C@@H](C)[C@H]1NC(=O)[C@@H](Cc2ccccc2)NC(=O)[C@@H]([C@H](C)O)NC(=O)[C@@H](Cc2ccccc2)NC(=O)[C@@H](Cc2c[nH]c3ccccc23)NC(=O)[C@H]2CCCN2C(=O)[C@H](NC(=O)[C@H](CCCCN)NC(=O)[C@H](CCCCN)NC(=O)[C@H](CCCNC(=N)N)NC(=O)[C@@H](N)CCCNC(=N)N)CSSC[C@H](C(=O)O)NC(=O)[C@@H](CC(N)=O)NC1=O` [PSP V A13, H-RRKKcpwftfinc-OH] (H-RRKK[dC][dP][dW][dF][dT][dF][dI][dN][dC]-OH; disulfide 5-13) here?
Answer: Its value is less than 20%.

Question: How did the “% Inhibition” value (H1N1 A/PR/8/1934) turn out when `CC[C@@H](C)[C@H]1NC(=O)[C@@H](Cc2ccccc2)NC(=O)[C@@H]([C@H](C)O)NC(=O)[C@@H](Cc2ccccc2)NC(=O)[C@@H](Cc2c[nH]c3ccccc23)NC(=O)[C@@H](Cc2c[nH]c3ccccc23)NC(=O)[C@H](NC(=O)[C@H](CCCCN)NC(=O)[C@H](CCCCN)NC(=O)[C@H](CCCNC(=N)N)NC(=O)[C@@H](N)CCCNC(=N)N)CSSC[C@H](C(=O)O)NC(=O)[C@@H](Cc2ccccc2)NC1=O` [PSP VI A5, H-RRKKcwwftfifc-OH] (H-RRKK[dC][dW][dW][dF][dT][dF][dI][dF][dC]-OH; disulfide 5-13) was run?
Answer: The value was 60%.

Question: How did the “% Inhibition” value (H1N1 A/PR/8/1934) turn out when `CC[C@@H](C)[C@H]1NC(=O)[C@@H](Cc2ccccc2)NC(=O)[C@@H]([C@H](C)O)NC(=O)[C@@H](Cc2ccccc2)NC(=O)[C@@H](Cc2c[nH]c3ccccc23)NC(=O)[C@@H](Cc2ccc(O)cc2)NC(=O)[C@H](NC(=O)[C@H](CCCCN)NC(=O)[C@H](CCCCN)NC(=O)[C@H](CCCNC(=N)N)NC(=O)[C@@H](N)CCCNC(=N)N)CSSC[C@H](C(=O)O)NC(=O)[C@@H](CC(N)=O)NC1=O` [PSP V A20, H-RRKKcywftfinc-OH] (H-RRKK[dC][dY][dW][dF][dT][dF][dI][dN][dC]-OH; disulfide 5-13) was run?
Answer: The value was less than 20%.

Question: `CC[C@@H](C)[C@H]1NC(=O)[C@@H](Cc2ccccc2)NC(=O)[C@@H]([C@H](C)O)NC(=O)[C@@H](Cc2ccccc2)NC(=O)[C@@H](Cc2c[nH]c3ccccc23)NC(=O)[C@@H](CCCNC(=N)N)NC(=O)[C@H](NC(=O)[C@H](CCCCN)NC(=O)[C@H](CCCCN)NC(=O)[C@H](CCCNC(=N)N)NC(=O)[C@@H](N)CCCNC(=N)N)CSSC[C@H](C(=O)O)NC(=O)[C@@H](CC(N)=O)NC1=O` [PSP V A15, H-RRKKcrwftfinc-OH] (H-RRKK[dC][dR][dW][dF][dT][dF][dI][dN][dC]-OH; disulfide 5-13) was tested. Which “% Inhibition” value (H1N1 A/PR/8/1934) did it give?
Answer: The value was 87%.

Question: Which “% Inhibition” value (H1N1 A/PR/8/1934) does the source give for `CC[C@@H](C)[C@H]1NC(=O)[C@@H](Cc2ccccc2)NC(=O)[C@@H]([C@H](C)O)NC(=O)[C@@H](Cc2ccccc2)NC(=O)[C@@H](Cc2c[nH]c3ccccc23)NC(=O)[C@@H](CCC(=O)O)NC(=O)[C@H](NC(=O)[C@H](CCCCN)NC(=O)[C@H](CCCCN)NC(=O)[C@H](CCCNC(=N)N)NC(=O)[C@@H](N)CCCNC(=N)N)CSSC[C@H](C(=O)O)NC(=O)[C@@H](CC(N)=O)NC1=O` [PSP V A4, H-RRKKcewftfinc-OH] (H-RRKK[dC][dE][dW][dF][dT][dF][dI][dN][dC]-OH; disulfide 5-13) here?
Answer: Its value is 27%.

Question: `CC[C@@H](C)[C@H]1NC(=O)[C@@H](Cc2ccccc2)NC(=O)[C@@H](CCCNC(=N)N)NC(=O)[C@@H](CO)NC(=O)[C@@H](CCCNC(=N)N)NC(=O)[C@@H]([C@H](C)O)NC(=O)[C@H](NC(=O)[C@@H](CCCCN)NC(=O)[C@@H](CCCCN)NC(=O)[C@@H](CCCNC(=N)N)NC(=O)[C@H](N)CCCNC(=N)N)CSSC[C@H](C(=O)O)NC(=O)[C@@H](CC(N)=O)NC1=O` [PSP II A15, H-rrkkctrsrfinc-OH] (H-[dR][dR][dK][dK][dC][dT][dR][dS][dR][dF][dI][dN][dC]-OH; disulfide 5-13) was tested. Which “% inhibition H9N2” value (H9N2 A/Iran/16/2000) did it give?
Answer: Its value is 90%.

Question: And the “% inhibition H3N8” value (H3N8 A/Miami/2/63)?
Answer: The value was 79.4%.

Question: What about the “% inhibition H1N1” value [1] of the same molecule?
Answer: The value was 57.7%.

Question: For `CC[C@@H](C)[C@H]1NC(=O)[C@@H](Cc2ccccc2)NC(=O)[C@@H](CCCNC(=N)N)NC(=O)[C@@H](CO)NC(=O)[C@@H](C(C)C)NC(=O)[C@@H]([C@H](C)O)NC(=O)[C@H](NC(=O)[C@@H](CCCCN)NC(=O)[C@@H](CCCCN)NC(=O)[C@@H](CCCNC(=N)N)NC(=O)[C@H](N)CCCNC(=N)N)CSSC[C@H](C(=O)O)NC(=O)[C@@H](CC(N)=O)NC1=O` [PSP II A18, H-rrkkctvsrfinc-OH] (H-[dR][dR][dK][dK][dC][dT][dV][dS][dR][dF][dI][dN][dC]-OH; disulfide 5-13), which “% inhibition H9N2” value (H9N2 A/Iran/16/2000) is on record?
Answer: The value was 70%.

Question: What about the “% inhibition H3N8” value (H3N8 A/Miami/2/63) of the same molecule?
Answer: Its value is 47%.

Question: What about the “% inhibition H1N1” value [1] of the same molecule?
Answer: The value was 42.3%.

Question: For `CC[C@@H](C)[C@H]1NC(=O)[C@@H](Cc2ccccc2)NC(=O)[C@@H](CCCNC(=N)N)NC(=O)[C@@H](CO)NC(=O)[C@@H](CCC(N)=O)NC(=O)[C@@H]([C@H](C)O)NC(=O)[C@H](NC(=O)[C@@H](CCCCN)NC(=O)[C@@H](CCCCN)NC(=O)[C@@H](CCCNC(=N)N)NC(=O)[C@H](N)CCCNC(=N)N)CSSC[C@H](C(=O)O)NC(=O)[C@@H](CC(N)=O)NC1=O` [PSP II A14, H-rrkkctqsrfinc-OH] (H-[dR][dR][dK][dK][dC][dT][dQ][dS][dR][dF][dI][dN][dC]-OH; disulfide 5-13), which “% inhibition H9N2” value (H9N2 A/Iran/16/2000) is on record?
Answer: Its value is 80%.

Question: What about the “% inhibition H3N8” value (H3N8 A/Miami/2/63) of the same molecule?
Answer: Its value is 85%.

Question: And the “% inhibition H1N1” value [1]?
Answer: The value was 73%.

Question: `CC[C@@H](C)[C@H]1NC(=O)[C@@H](Cc2ccccc2)NC(=O)[C@@H](CCCNC(=N)N)NC(=O)[C@@H](CO)NC(=O)[C@@H](CCSC)NC(=O)[C@@H]([C@H](C)O)NC(=O)[C@H](NC(=O)[C@@H](CCCCN)NC(=O)[C@@H](CCCCN)NC(=O)[C@@H](CCCNC(=N)N)NC(=O)[C@H](N)CCCNC(=N)N)CSSC[C@H](C(=O)O)NC(=O)[C@@H](CC(N)=O)NC1=O` [PSP II A11, H-rrkkctmsrfinc-OH] (H-[dR][dR][dK][dK][dC][dT][dM][dS][dR][dF][dI][dN][dC]-OH; disulfide 5-13) was tested. Which “% inhibition H9N2” value (H9N2 A/Iran/16/2000) did it give?
Answer: The value was 40%.

Question: What about the “% inhibition H3N8” value (H3N8 A/Miami/2/63) of the same molecule?
Answer: The value was 76.5%.

Question: And the “% inhibition H1N1” value [1]?
Answer: Its value is 65.4%.

Question: For `CC[C@@H](C)[C@H]1NC(=O)[C@@H](Cc2ccccc2)NC(=O)[C@@H](CCCNC(=N)N)NC(=O)[C@@H](CO)NC(=O)[C@@H](CO)NC(=O)[C@@H]([C@H](C)O)NC(=O)[C@H](NC(=O)[C@@H](CCCCN)NC(=O)[C@@H](CCCCN)NC(=O)[C@@H](CCCNC(=N)N)NC(=O)[C@H](N)CCCNC(=N)N)CSSC[C@H](C(=O)O)NC(=O)[C@@H](CC(N)=O)NC1=O` [PSP II A16, H-rrkkctssrfinc-OH] (H-[dR][dR][dK][dK][dC][dT][dS][dS][dR][dF][dI][dN][dC]-OH; disulfide 5-13), which “% inhibition H9N2” value (H9N2 A/Iran/16/2000) is on record?
Answer: The value was 90%.

Question: What about the “% inhibition H3N8” value (H3N8 A/Miami/2/63) of the same molecule?
Answer: Its value is 61.8%.

Question: What about the “% inhibition H1N1” value [1] of the same molecule?
Answer: Its value is 61.5%.
